# Experimental data reported in patent US20160338955A1, “ANTIGEN-SPECIFIC IMMUNOTHERAPY USING TOLERIZING LIPOSOMES” (PLS-Design GmbH, priority 2015, published 2016).
# Where two headings read alike, the source gives them in different places.
# Experiments:
# [1] = molecular target: T1, murine CD22 (Mus musculus, UniProt P35329); details: cited from earlier work
# T1 sequence (P35329 22-868): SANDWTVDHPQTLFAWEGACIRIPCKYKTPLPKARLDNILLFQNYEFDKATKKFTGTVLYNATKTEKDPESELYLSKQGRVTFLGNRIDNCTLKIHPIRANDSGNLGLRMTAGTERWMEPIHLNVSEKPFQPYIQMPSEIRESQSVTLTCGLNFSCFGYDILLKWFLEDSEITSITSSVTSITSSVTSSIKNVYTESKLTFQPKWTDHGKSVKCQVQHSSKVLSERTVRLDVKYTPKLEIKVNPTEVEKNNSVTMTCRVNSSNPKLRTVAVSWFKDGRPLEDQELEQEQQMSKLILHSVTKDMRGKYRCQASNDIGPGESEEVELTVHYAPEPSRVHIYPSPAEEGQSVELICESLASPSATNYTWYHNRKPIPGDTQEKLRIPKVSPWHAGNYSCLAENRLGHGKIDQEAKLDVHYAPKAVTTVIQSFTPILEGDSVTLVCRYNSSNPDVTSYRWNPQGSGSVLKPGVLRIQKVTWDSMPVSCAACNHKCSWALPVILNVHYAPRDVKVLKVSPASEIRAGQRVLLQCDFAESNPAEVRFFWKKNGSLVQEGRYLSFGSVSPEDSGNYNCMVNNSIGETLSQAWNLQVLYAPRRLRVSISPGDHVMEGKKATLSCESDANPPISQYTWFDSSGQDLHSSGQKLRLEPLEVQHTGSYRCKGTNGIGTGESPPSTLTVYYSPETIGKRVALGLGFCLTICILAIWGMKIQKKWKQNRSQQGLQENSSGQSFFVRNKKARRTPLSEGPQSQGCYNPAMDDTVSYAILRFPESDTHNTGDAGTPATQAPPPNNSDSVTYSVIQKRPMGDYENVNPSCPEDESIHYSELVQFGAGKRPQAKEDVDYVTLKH
# [2] = tested on: human polymorphonuclear leukocyte (PMN) trans-endothelial migration; details: equipotent to resolvin D1; read-out: EC50 of reduction of PMN trans-endothelial migration; cited from earlier work
# [3] = tested on: leukocyte infiltration; details: 100 ng dose; cited from earlier work
# [4] = In vitro release of ATP from PLGA-PEG-PLGA hydrogels; assay type: physicochemical
# Method: An aliquot of 20 μl of a 10 mM solution of ATP is combined with 160 μl of 25% gel solution of Example 4.1 and 20 μl of 10×PBS (final concentration of ATP is 1 mM). The mixture is incubated for 2 minutes at 37° C. to induce gelling and overlayed with 1 ml of 1×PBS. At frequent timepoints the supernatant is removed by pipetting and stored at 4° C. The removed supernatant is replaced by fresh 1 ml of 1×PBS. After 48 hours the samples are measured spectrometrically at 260 nm and the amount of released ATP is calculated as percentage of a reference sample containing a concentration of ATP equaling 100% release.
# [5] = molecular target: T2, P2X7 (Homo sapiens, UniProt Q99572); details: read-out: EC50 for activation of P2X7; cited from earlier work
# T2 sequence (Q99572 1-595): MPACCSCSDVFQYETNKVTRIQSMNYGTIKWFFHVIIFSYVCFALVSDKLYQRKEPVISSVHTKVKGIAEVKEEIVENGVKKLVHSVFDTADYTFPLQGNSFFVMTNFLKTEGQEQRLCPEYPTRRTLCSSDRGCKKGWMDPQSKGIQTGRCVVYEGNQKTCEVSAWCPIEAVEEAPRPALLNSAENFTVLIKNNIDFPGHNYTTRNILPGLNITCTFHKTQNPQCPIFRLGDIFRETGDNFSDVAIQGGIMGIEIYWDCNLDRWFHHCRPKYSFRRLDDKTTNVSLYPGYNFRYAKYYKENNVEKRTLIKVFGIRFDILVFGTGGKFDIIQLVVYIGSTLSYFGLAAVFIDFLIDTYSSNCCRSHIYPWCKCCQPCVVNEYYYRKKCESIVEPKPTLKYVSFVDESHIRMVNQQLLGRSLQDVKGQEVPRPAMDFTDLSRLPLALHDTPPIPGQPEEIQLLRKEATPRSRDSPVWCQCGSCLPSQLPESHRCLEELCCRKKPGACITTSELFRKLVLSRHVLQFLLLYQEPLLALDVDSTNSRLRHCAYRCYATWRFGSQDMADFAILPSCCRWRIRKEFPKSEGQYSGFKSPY
# [6] = molecular target: P2Y2 (Homo sapiens, UniProt P41231); details: read-out: EC50 for activation of P2Y2; cited from earlier work
# [7] = tested on: phagocytes; details: cited from earlier work; for maximal migration of phagocytes (increase): at about 100 nM; for concentration effecting maximal migration of phagocytes: transwell migration assay
# [8] = Release of DexP from PLGA-PEG-PLGA hydrogels; assay type: physicochemical
# Method: The biodegradable PLGA-PEG-PLGA triblock polymer used in this example has a PLG/PEG weight ratio of 2.3 (70/30), and a lactide/glycolide molar ratio of approx. 15/1. Synthesis of the triblock copolymer is performed as described in Example 2.1. A 20 mM stock solution of DexP in PBS (10.3 mg/ml; MW 516.4; Sigma-Aldrich) is diluted 1:40 in PBS (final concentration: 0.5 mM), and 20 μl of the diluted stock solution is combined with 160 μl of 25% gel solution and 20 μl of 10×PBS (final concentration of DexP: 0.05 mM).
# The mixture of 5.2.1 is incubated for 2 minutes at 37° C. to induce gelling and overlayed with 200 μl of 1×PBS. At frequent time points the supernatant is removed by pipetting and stored at 4° C. The removed supernatant is replaced by fresh 200 μl of 1×PBS. Controls of the same concentration of DexP in 1×PBS without gel are incubated and sampled in parallel.
# Released DexP is determined with a spectrophotometric method (Singh and Verma, 2008). The method involves oxidation of the corticosteroid by iron (III) and subsequent complexation of iron (II) with potassium hexacynoferate (III), forming a bluish green coloured complex with maximum absorbance at 780 nm (Beer's law range: 10-50 μg/ml; molar absorptivity (M^−1cm^−1): for DexP 0.55×10^4).
# [9] = cited from earlier work
# [10] = tested on: rheumatoid arthritis; details: 2 μg/day for 3 months, cited from earlier work
# [11] = cited from earlier work; remark: listed apart in the source
# [12] = rodents; cited from earlier work
# [13] = tested on: calcium metabolism; details: compared to 1,25-(OH)2D3; cited from earlier work
# [14] = cited from earlier work; remark: listed apart in the source
# [15] = cited from earlier work; remark: listed apart in the source
# [16] = rats; cited from earlier work
# [17] = in vivo; cited from earlier work
# [18] = cited from earlier work; remark: listed apart in the source
# [19] = tested on: TNFR1-mediated activation of NF-κB; details: high concentrations; cited from earlier work
# [20] = tested on: type 1 diabetes; details: cited from earlier work
# Chain of P2Y2 (P41231 whole entry, species assumed): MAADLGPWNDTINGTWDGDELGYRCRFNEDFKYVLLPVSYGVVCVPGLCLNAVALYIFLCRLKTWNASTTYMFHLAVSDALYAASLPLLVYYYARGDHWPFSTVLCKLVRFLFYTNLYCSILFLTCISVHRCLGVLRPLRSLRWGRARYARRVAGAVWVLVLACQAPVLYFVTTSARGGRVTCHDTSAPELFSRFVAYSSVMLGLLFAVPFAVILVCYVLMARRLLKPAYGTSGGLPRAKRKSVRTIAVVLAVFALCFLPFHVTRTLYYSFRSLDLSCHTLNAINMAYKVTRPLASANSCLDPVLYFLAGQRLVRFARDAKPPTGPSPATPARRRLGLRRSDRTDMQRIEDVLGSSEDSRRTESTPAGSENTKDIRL
compound,measurement,setting,value
9-biphenylacetyl-N-glycolylneuraminic acid-α2-6-galactose-β1-4-N-acetylglucosamine-β-ethylamine [6′-^BPANeuGc],"affinity for murine CD22, fold higher than natural ligand NeuGcα2-6Galβ1-4GlcNAc-β-ethylamine",[1],200 fold
CC/C=C\C[C@@H](O)/C=C/C=C\C=C\C=C\[C@@H](O)[C@@H](O)C/C=C\CCC(=O)O [17(R)-Resolvin D1],EC50,[2],~30 nM
same,maximal inhibition of leukocyte infiltration,[3],~35%
Nc1ncnc2c1ncn2[C@@H]1O[C@H](COP(=O)(O)OP(=O)(O)OP(=O)(O)O)[C@@H](O)[C@H]1O [ATP],hydrogel-embedded ATP released,[4]; after 48 hours,approx. 75%
same,further hydrogel-embedded ATP released,"[4]; another, within the next 20 hours",10%
same,hydrogel-embedded ATP released,[4]; within the first 5 hours (initial burst),approx. 50%
same,EC50,[5],> 100000 nM
same,EC50,[6],< 1000 nM
same,maximal migration of phagocytes (increase),[7],threefold increase
same,concentration effecting maximal migration of phagocytes,[7],about 100 nM
"C[C@@H]1C[C@H]2[C@@H]3CCC4=CC(=O)C=C[C@]4(C)[C@@]3(F)[C@@H](O)C[C@]2(C)[C@@]1(O)C(=O)COP(=O)(O)O [DexP, dexamethasone sodium phosphate]",hydrogel-embedded DexP released,[8]; after 2 days,80-90%
same,hydrogel-embedded DexP released,[8]; within the first 6 hours,30-50%
same,solubility in PBS,[9]; PBS,at least 25 mg/ml
same,"solubility in 10 mM HEPES and 135 mM NaCl, pH 6.7",[9]; pH 6.7,at least 50 mg/ml
same,solubility in water,"[9]; water, product information",50 mg/mL
O=c1ccn([C@@H]2O[C@H](COP(=O)(O)OP(=O)(O)OP(=O)(O)O)[C@@H](O)[C@H]2O)c(=O)[nH]1 [UTP],maximal migration of phagocytes (increase),[7],threefold increase
same,concentration effecting maximal migration of phagocytes,[7],about 100 nM
C=C1/C(=C\C=C2/CCC[C@]3(C)[C@@H]([C@H](C)CCCC(C)C)CC[C@@H]23)C[C@@H](O)C[C@@H]1O [alfacalcidiol],patients with improvement of disease activity,[10]; on methotrexate,89%
same,patients going into remission,[10],45%
"C=C1CC[C@H](O)C/C1=C/C=C1\CCC[C@]2(C)[C@@H]([C@H](C)CCCC(C)(C)O)CC[C@@H]12 [calcidiol, 25-hydroxyvitamin D3]",plasma calcidiol concentration producing vitamin D toxicity,[11]; Jones (2008),above 0.75 μM
same,calcidiol level at which toxicity occurs,[11]; Shephard and DeLuca (1980),≥ 500 ng/mL
same,plasma calcidiol concentration tolerated with normocalcemia,[12],250 to 1000 nM
C=C1/C(=C\C=C2/CCC[C@]3(C)[C@@H]([C@H](C)/C=C/[C@@H](O)C4CC4)CC[C@@H]23)C[C@@H](O)C[C@@H]1O [calcipotriol],"effect on calcium metabolism, times less than 1,25-(OH)2D3 (calcitriol)",[13],100-200 times
same,"rate of clearance, times higher than for 1,25-(OH)2D3","[14]; compared to 1,25-(OH)2D3 / calcitriol",approximately 140 times
same,detectable in serum by HPLC up to,[14]; i.v. injection of 10 μg/kg in rats,up to 5 min
same,detectable in serum by HPLC up to,[14]; i.v. injection of 50 μg/kg in rats,up to 10 min
same,applied dose absorbed systemically,[15]; applied to normal skin,5%
same,applied dose absorbed systemically,[15]; ointment applied topically to psoriasis plaques,approximately 6%
same,single s.c. dose up to which no death occurred,[16],≤ 540 μg/kg body weight
C[C@]12CCC(=O)C=C1CC[C@@H]1[C@@H]2C(=O)C[C@@]2(C)[C@H]1CC[C@]2(O)C(=O)CO [cortisone],glucocorticoid potency (in words),[17],rather low potency
C[C@@H]1C[C@H]2[C@@H]3CCC4=CC(=O)C=C[C@]4(C)[C@@]3(F)[C@@H](O)C[C@]2(C)[C@@]1(O)C(=O)CO [dexamethasone],plasma concentration of Dex,[18]; after 6 weeks (day 42),1 nM
same,plasma concentration of Dex,[18]; around day 7 after i.v. 200 mg/day on three alternating days,100 to 1000 nM
C[C@]12CCC(=O)C=C1CC[C@@H]1[C@@H]2[C@@H](O)C[C@@]2(C)[C@H]1CC[C@]2(O)C(=O)CO [hydrocortisone],glucocorticoid potency (in words),[17],rather low potency
C[C@]12C=CC(=O)C=C1CC[C@@H]1[C@@H]2[C@@H](O)C[C@@]2(C)[C@H]1CC[C@]2(O)C(=O)CO [prednisolone],glucocorticoid potency (in words),[17],intermediate potency
O=C([O-])c1ccccc1O.[Na+] [sodium salicylate],concentration inhibiting TNFR1-mediated activation of NF-κB,[19],10 to 20 mM
C[C@]12C=CC(=O)C=C1CC[C@H]1[C@@H]3C[C@@H](O)[C@](O)(C(=O)CO)[C@@]3(C)C[C@H](O)[C@@]12F [triamcinolone],glucocorticoid potency (in words),[17],intermediate potency
vitamin D,relative risk of type 1 diabetes,[20]; doses of exactly 50 μg/day,0.22
same,relative risk of type 1 diabetes,"[20]; doses of over 50 μg/day (2000 IU/d) during infancy, subsequent 30 years",0.14
same,odds ratio of risk for T1D by age 15,[20]; supplemented vs unsupplemented children,0.67
